{"source": "ChEMBL document CHEMBL1124404", "about": "“Conformationally restricted and conformationally defined tyramine analogues as inhibitors of phenylethanolamine N-methyltransferase” (J Med Chem, 1989)", "data": [{"biological_target": "T1, Phenylethanolamine N-methyltransferase (Bos taurus, UniProt P10938)", "T1 sequence (P10938 whole entry)": "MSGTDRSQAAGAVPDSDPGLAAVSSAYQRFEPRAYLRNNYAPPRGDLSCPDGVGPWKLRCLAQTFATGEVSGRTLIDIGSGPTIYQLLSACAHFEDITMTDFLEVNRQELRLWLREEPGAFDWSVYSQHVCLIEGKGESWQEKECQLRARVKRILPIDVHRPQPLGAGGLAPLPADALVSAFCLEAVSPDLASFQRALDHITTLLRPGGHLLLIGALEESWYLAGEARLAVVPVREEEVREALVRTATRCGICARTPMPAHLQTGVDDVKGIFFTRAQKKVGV", "test": "The compound was tested for In vitro inhibitory activity against Phenylethanolamine N-Methyltransferase (PNMT)", "units": {"Ki": "µM"}, "values": [{"smiles": "NCCc1cccc(O)c1", "Ki": 1250}, {"smiles": "NCCc1ccc(O)cc1", "note": "[TYRAMINE]", "Ki": 294}]}, {"biological_target": "T1, Phenylethanolamine N-methyltransferase", "test": "In vitro inhibitory activity against bovine phenylethanolamine N-methyl-transferase", "units": {"Ki": "µM"}, "values": [{"smiles": "NC1CC2CC1c1cccc(O)c12", "note": "(stereo unspecified)", "Ki": "> 10000"}, {"smiles": "NC12CCC(C1)c1cc(O)ccc1C2", "note": "(stereo unspecified)", "Ki": 111}, {"smiles": "COc1ccc2c(c1)CC(N)CC2", "note": "(stereo unspecified)", "Ki": 228}, {"smiles": "NC12CCC(C1)c1ccc(O)cc1C2", "note": "(stereo unspecified)", "Ki": 1270}, {"smiles": "NC1CC2CC1c1ccccc12", "note": "(stereo unspecified)", "Ki": 479}, {"smiles": "COc1ccc2c(c1)CC1(N)CCC2C1", "note": "(stereo unspecified)", "Ki": 1410}, {"smiles": "NC1CCc2ccccc2C1", "note": "(stereo unspecified)", "Ki": 6.8}, {"smiles": "NC1CCc2cccc(O)c2C1", "note": "(stereo unspecified)", "Ki": 39}, {"smiles": "COc1cccc2c1C1CC2CC1N", "note": "(stereo unspecified)", "Ki": "> 2000"}, {"smiles": "COc1ccc2c(c1)C1CC2CC1N", "note": "(stereo unspecified)", "Ki": "> 2000"}, {"smiles": "N[C@@H]1CC2CC1c1c(O)cccc12", "note": "(stereo partly specified)", "Ki": "> 3000"}, {"smiles": "COc1cccc2c1CC(N)CC2", "note": "(stereo unspecified)", "Ki": 144}, {"smiles": "NC1CCc2c(O)cccc2C1", "note": "(stereo unspecified)", "Ki": 21}, {"smiles": "COc1cccc2c1CCC(N)C2", "note": "(stereo unspecified)", "Ki": 157}, {"smiles": "NC12CCC(C1)c1ccccc1C2", "note": "(stereo unspecified)", "Ki": 206}, {"smiles": "COc1cccc2c1C1CCC(N)(C2)C1", "note": "(stereo unspecified)", "Ki": 8420}, {"smiles": "NC1CC2CC1c1ccc(O)cc12", "note": "(stereo unspecified)", "Ki": 304}, {"smiles": "COc1ccc2c(c1)CCC(N)C2", "note": "(stereo unspecified)", "Ki": 34}, {"smiles": "COc1ccc2c(c1)C1CCC(N)(C2)C1", "note": "(stereo unspecified)", "Ki": 389}, {"smiles": "COc1cccc2c1C1CC(N)C2C1", "note": "(stereo unspecified)", "Ki": "> 2000"}, {"smiles": "NCCc1ccccc1", "note": "[PHENETHYLAMINE]", "Ki": 854}, {"smiles": "NC1CCc2cc(O)ccc2C1", "note": "(stereo unspecified)", "Ki": 4.7}, {"smiles": "NC12CCC(C1)c1c(O)cccc1C2", "note": "(stereo unspecified)", "Ki": 3470}]}, {"biological_target": "T1, Phenylethanolamine N-methyltransferase", "test": "In vitro inhibitory activity against Phenylethanolamine N-methyl-transferase (PNMT)", "units": {"Ki": "µM"}, "values": [{"smiles": "NC1CCc2ccc(O)cc2C1", "note": "(stereo unspecified)", "Ki": 76}]}]}
